# In US8653023B1, “Dual beneficial effect of dopamine enhancing and neuroprotective actions of PKC delta inhibitors for treatment of Parkinson's disease” (Iowa State University Research Foundation, Inc., priority 2006, dated 2014):
# Like-named read-outs stand apart in the source and are kept apart here. * marks the point of attachment. Cbz = O=C(OCc1ccccc1)*; CH2F = FC*
# Tests used:
# [1] = test system: dopaminergic neuronal cells; test: 6-OHDA-induced DNA fragmentation (genomic DNA fragmentation assay); type: cell-based
# From the text: (§1) The ability of a PKCd inhibitor to decrease PKCd activity, for example, neurodegeneration or apoptotic activity, can be assessed using standard techniques known to one skilled in the art, including commercially available assays. These include apoptotic DNA Ladder assays, Cell Death Detection ELISA^PLUS (from Roche Applied Sciences), Caspase-3 Activity Assay^PLUS (from Roche Applied Sciences), terminal deoxynucleotidyl transferase-mediated dUTP [deoxy-uridine triphosphate] nick end labeling (TUNEL) assays. DNA-binding dyes or stains such as […] or DAPI or propidium iodide may be used to assess nuclear morphology and DNA damage. Kaul S, Kanthasamy A, Kitazawa M, Anantharam V, Kanthasamy A G, Caspase-3 dependent proteolytic activation of protein kinase C delta mediates and regulates 1-methyl-4-phenylpyridinium (MPP^+)-induced apoptotic cell death in dopaminergic cells: relevance to oxidative stress in dopaminergic degeneration. Eur J Neurosci. 2003 September; 18(6):1387-401.
# [2] = test system: dopaminergic neuronal cells; test: MPP+ induced DNA fragmentation (genomic DNA fragmentation assay); type: cell-based
# From the text: as §1
substance,measurement,setting,value
N-benzyloxycarbonyl-Asp(OMe)-Ile-Pro-Asp(OMe)-FMK (Cbz-D(OMe)IPD(OMe)-CH2F; SMILES CC[C@H](C)[C@H](NC(=O)[C@H](CC(=O)OC)NC(=O)OCc1ccccc1)C(=O)N1CCC[C@H]1C(=O)N[C@@H](CC(=O)OC)C(=O)CF; listed as Homo sapiens),6-OHDA-induced DNA fragmentation,[1],effectively blocked
same,6-OHDA-induced DNA fragmentation,[1]; concentration as low as 3 μM,almost completely inhibits
same,MPP+ induced DNA fragmentation,[2],inhibited
